Assay results published in PMC9945734 (BMC Medicine, 2023).

Columns and labels:
MMP9 = MMP9 expression by western blotting and qRT-PCR; assay type: cell-based, human; conditions: KLF5^K369Q-expressing cells (PC-3-KQ)
Method: Total RNA was extracted from cells using the Eastep Super total RNA extraction kit (Cat #: LS1040, Promega, Shanghai, China) and quantified using the NanoDrop One (Thermo Fisher Scientific, Madison, USA). Single-strand cDNA was synthesized from 1 μg of total RNA using the HiScript III All-in-one RT SuperMix kit (Cat #: R333-01, Vazyme, Nanjing, China). For qRT-PCR, the cDNA template was mixed with the SYBR Green reagent in enzyme-free water, and the Qtower3 touch system (Analytik Jena, Jena, Germany) was used for PCR with the following program: initial denaturation at 95°C for 5 min, 40 cycles of 95°C for 30 s, 60°C for 30 s, and 72 °C for 30 s, and a final melting for 15 s. GAPDH was used as an internal control. […].
Cells in 6-well plates were washed with cold PBS and collected in a lysis buffer containing phosphatase and protease inhibitors (Cat #: P1045, Beyotime) to extract proteins. After centrifugation for 10 min at 4°C in a refrigerated centrifuge, the supernatant was collected and mixed with the 4× loading buffer, boiled in a metal heat bath at 100°C for 10 min, and then subjected to 10% SDS-PAGE. Proteins were transferred onto an activated PVDF membrane (0.45 μm pore-size, Cat #: IPVH00010, Millipore, Carrigtwohill, Ireland). […]

[1] = system: PC-3-KLF5, PC-3-KQ, DU 145-KLF5 and DU 145-KQ cell spheroids; assay: 3D spheroid invasion assay, KLF5^K369Q- versus KLF5-expressing cells; assay type: cell-based, human; conditions: 0-10 μM
Method: The invasion assay was performed as previously described. Briefly, PC-3-KQ cells at 80-90% confluency were plated onto 384-well round bottom plates with ultra-low attachment (Cat #: 4516, Corning) at 500 cells per well in 80 μL medium. The plates were then centrifuged at 320 g for 4 min to cluster cells in the bottom of wells and incubated for 3 days. On the fourth day, 40 μL medium was removed from each well, 40 μL of the matrigel-medium mixture was added to each well, and cells were cultured for another 3 days. The matrigel (Cat #: 354234, Corning) was from Corning, and the medium contained 1% FBS. At the end of the incubation, images were taken using a phase contrast microscope (Eclipse Ti2, Nikon, Tokyo, Japan) with 10× object lenses, and the total area of cells and the core sphere area of cells (Fig. 1a) were measured using the Image J software. The invading area was calculated using the following formula: invasion area = total area of cells – core sphere area.
Figure S2. The effect of NTZ on acetylated (KQ) and non-mutated KLF5 cell invasion. (a) The effect of NTZ on the invasion of PC-3-KLF5, PC-3-KQ, DU 145-KLF5 and DU 145-KQ cell spheroids at different concentrations (0-10 μM) and quantitative analysis (b). *, p < 0.05; ***, p < 0.001.

[2] = In vivo toxicity: body weight, adverse events, H&E of major organs; set-up: species or system Balb/c nude mice; conditions: 100 mg/kg intragastric every day

In the case of CC(=O)Oc1ccccc1C(=O)Nc1ncc([N+](=O)[O-])s1 [Nitazoxanide], the “MMP9 expression (protein and mRNA)” value (MMP9) is reported as “decreased MMP9 expression in a dose-dependent manner”, the “invasion inhibition in KLF5^K369Q- versus KLF5-expressing cells” value [1] is reported as “more potent in invasion inhibition” and the “severe adverse events, mortality, histopathological changes in heart, lung, liver, spleen, kidney” value ([2]; prevention mode) is reported as “no mice in any NTZ-treated group had severe adverse events, mortality, or noticeable histopathological changes”. The body weight ([2]; prevention mode, after 5 weeks) was “did not show a noticeable change” and the body weights ([2]; therapy mode) was “not affected”.
